In US11548871B2, “Triazole carbamate pyridyl sulfonamides as LPA receptor antagonists and uses thereof” (Gilead Sciences, Inc., priority 2019, dated 2023):

What follows are compounds tested against human LPAR1 (Homo sapiens, UniProt Q92633) (assay: LPAR1 intracellular calcium mobilization assay (antagonist mode)).
human LPAR1, sequence (Q92633 whole entry): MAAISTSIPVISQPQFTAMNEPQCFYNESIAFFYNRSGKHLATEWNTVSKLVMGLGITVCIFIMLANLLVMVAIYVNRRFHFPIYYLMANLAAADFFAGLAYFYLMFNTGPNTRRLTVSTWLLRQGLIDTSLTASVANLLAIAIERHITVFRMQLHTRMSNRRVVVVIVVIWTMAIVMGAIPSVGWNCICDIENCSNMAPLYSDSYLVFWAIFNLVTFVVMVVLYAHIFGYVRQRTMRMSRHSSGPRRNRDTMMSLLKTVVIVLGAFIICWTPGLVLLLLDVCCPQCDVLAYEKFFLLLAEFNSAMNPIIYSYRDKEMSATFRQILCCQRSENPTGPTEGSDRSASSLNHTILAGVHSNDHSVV
An EC50 of 1220 nM was found for `CCCCCCOC(=O)Nc1c(-c2ccc(NS(C)(=O)=O)c(C)n2)nnn1C` [Compound 31, hexyl (1-methyl-4-(6-methyl-5-(methylsulfonamido)pyridin-2-yl)-1H-1,2,3-triazol-5-yl)carbamate] in this work.
An EC50 of 218 nM was found for `C[C@@H](OC(=O)Nc1c(-c2ccc(NS(C)(=O)=O)cn2)nnn1C)c1cc(F)ncc1F` [Compound 117, (R)-1-(2,5-difluoropyridin-4-yl)ethyl (1-methyl-4-(5-(methylsulfonamido)pyridin-2-yl)-1H-1,2,3-triazol-5-yl)carbamate] in this work.
An EC50 of 1700 nM was found for `Cc1nc(-c2nnn(C)c2NC(=O)OC(C)c2cnc(Cl)nc2Cl)ccc1NS(C)(=O)=O` (centres unmarked) [Compound 133, 1-(2,4-dichloropyrimidin-5-yl)ethyl (1-methyl-4-(6-methyl-5-(methylsulfonamido)pyridin-2-yl)-1H-1,2,3-triazol-5-yl)carbamate] in this work.
An EC50 of 37.8 nM was found for `Cn1nnc(-c2ccc(NS(C)(=O)=O)cn2)c1NC(=O)OCc1cccc(F)c1` [Compound 21, 3-fluorobenzyl (1-methyl-4-(5-(methylsulfonamido)pyridin-2-yl)-1H-1,2,3-triazol-5-yl)carbamate] in this work.
An EC50 of 28.4 nM was found for `C[C@@H](OC(=O)Nc1c(-c2ccc(NS(C)(=O)=O)cn2)nnn1C)c1cccc(F)c1` [Compound 95, (R)-1-(3-fluorophenyl)ethyl(1-methyl-4-(5-(methylsulfonamido)pyridin-2-yl)-1H-1,2,3-triazol-5-yl)carbamate] in this work.
An EC50 of 166 nM was found for `C[C@@H](OC(=O)Nc1c(-c2ccc(NS(C)(=O)=O)c(F)n2)nnn1C)c1ccccc1` [Compound 3, (R)-1-phenylethyl (4-(6-fluoro-5-(methylsulfonamido)pyridin-2-yl)-1-methyl-1H-1,2,3-triazol-5-yl)carbamate] in this work.
An EC50 of 59.9 nM was found for `Cc1nc(-c2nnn(C)c2NC(=O)O[C@H](C)c2cc(Cl)ccc2F)ccc1NS(C)(=O)=O` [Compound 56, (R)-1-(5-chloro-2-fluorophenyl)ethyl (1-methyl-4-(6-methyl-5-(methylsulfonamido)pyridin-2-yl)-1H-1,2,3-triazol-5-yl)carbamate] in this work.
An EC50 of 589 nM was found for `Cc1nc(-c2nnn(C)c2NC(=O)OC(C)c2cccnc2F)ccc1NS(C)(=O)=O` (centres unmarked) [Compound 79, 1-(2-fluoropyridin-3-yl)ethyl (1-methyl-4-(6-methyl-5-(methylsulfonamido)pyridin-2-yl)-1H-1,2,3-triazol-5-yl)carbamate] in this work.
An EC50 of 110 nM was found for `Cc1nc(-c2nnn(C)c2NC(=O)O[C@H](C)c2cc(F)cnc2Cl)ccc1NS(C)(=O)=O` [Compound 74, (R)-1-(2-chloro-5-fluoropyridin-3-yl)ethyl (1-methyl-4-(6-methyl-5-(methylsulfonamido)pyridin-2-yl)-1H-1,2,3-triazol-5-yl)carbamate] in this work.
An EC50 of 1420 nM was found for `C=Cc1ncccc1[C@@H](C)OC(=O)Nc1c(-c2ccc(NS(C)(=O)=O)c(C)n2)nnn1C` [Compound 127, (R)-1-(2-vinylpyridin-3-yl)ethyl (1-methyl-4-(6-methyl-5-(methylsulfonamido)pyridin-2-yl)-1H-1,2,3-triazol-5-yl)carbamate] in this work.
An EC50 of 8.2 nM was found for `Cn1nnc(-c2ccc(NS(C)(=O)=O)cn2)c1NC(=O)O[C@@H](c1ccccc1)C(F)F` [Compound 15, (S)-2,2-difluoro-1-phenylethyl (1-methyl-4-(5-(methylsulfonamido)pyridin-2-yl)-1H-1,2,3-triazol-5-yl)carbamate] in this work.
An EC50 of 72.6 nM was found for `Cc1nc(-c2nnn(C)c2NC(=O)OCc2cccc(F)c2)ccc1NS(C)(=O)=O` [Compound 91, 3-fluorobenzyl(1-methyl-4-(6-methyl-5-(methylsulfonamido)pyridin-2-yl)-1H-1,2,3-triazol-5-yl)carbamate] in this work.
An EC50 of 272 nM was found for `Cc1nc(-c2nnn(C)c2NC(=O)OC(C)c2cc(Br)cnc2Cl)ccc1NS(C)(=O)=O` (centres unmarked) [Compound 130, 1-(5-bromo-2-chloropyridin-3-yl)ethyl (1-methyl-4-(6-methyl-5-(methylsulfonamido)pyridin-2-yl)-1H-1,2,3-triazol-5-yl)carbamate] in this work.
An EC50 of 48.8 nM was found for `C[C@@H](OC(=O)Nc1c(-c2ccc(NS(C)(=O)=O)cn2)nnn1C)c1cc(F)cnc1F` [Compound 114, (R)-1-(2,5-difluoropyridin-3-yl)ethyl (1-methyl-4-(5-(methylsulfonamido)pyridin-2-yl)-1H-1,2,3-triazol-5-yl)carbamate] in this work.
An EC50 of 86.1 nM was found for `Cc1nc(-c2nnn(C)c2NC(=O)O[C@H](C)c2cc(F)ncc2Cl)ccc1NS(C)(=O)=O` [Compound 123, (R)-1-(5-chloro-2-fluoropyridin-4-yl)ethyl (1-methyl-4-(6-methyl-5-(methylsulfonamido)pyridin-2-yl)-1H-1,2,3-triazol-5-yl)carbamate] in this work.
An EC50 of 271 nM was found for `Cc1nc(-c2nnn(C)c2NC(=O)OC(C)c2cnc(F)cc2Cl)ccc1NS(C)(=O)=O` (centres unmarked) [Compound 129, 1-(4-chloro-6-fluoropyridin-3-yl)ethyl (1-methyl-4-(6-methyl-5-(methylsulfonamido)pyridin-2-yl)-1H-1,2,3-triazol-5-yl)carbamate] in this work.
An EC50 of 193 nM was found for `Cc1nc(-c2nnn(C)c2NC(=O)OC(C)c2cc(Cl)cnc2Cl)ccc1NS(C)(=O)=O` (centres unmarked) [Compound 84, 1-(2,5-dichloropyridin-3-yl)ethyl (1-methyl-4-(6-methyl-5-(methylsulfonamido)pyridin-2-yl)-1H-1,2,3-triazol-5-yl)carbamate] in this work.
An EC50 of 106 nM was found for `Cc1ncc(F)cc1[C@@H](C)OC(=O)Nc1c(-c2ccc(NS(C)(=O)=O)cn2)nnn1C` [Compound 112, (R)-1-(5-fluoro-2-methylpyridin-3-yl)ethyl (1-methyl-4-(5-(methylsulfonamido)pyridin-2-yl)-1H-1,2,3-triazol-5-yl)carbamate] in this work.
An EC50 of 50.2 nM was found for `C[C@@H](OC(=O)Nc1c(-c2ccc(NS(C)(=O)=O)cn2)nnn1C)c1csnc1Cl` [Compound 119, (R)-1-(3-chloroisothiazol-4-yl)ethyl (1-methyl-4-(5-(methylsulfonamido)pyridin-2-yl)-1H-1,2,3-triazol-5-yl)carbamate] in this work.
An EC50 of 23.8 nM was found for `Cc1nc(-c2nnn(C)c2NC(=O)O[C@H](C)c2ccccc2Cl)ccc1NS(C)(=O)=O` [Compound 11, (R)-1-(2-chlorophenyl)ethyl (1-methyl-4-(6-methyl-5-(methylsulfonamido)pyridin-2-yl)-1H-1,2,3-triazol-5-yl)carbamate] in this work.
An EC50 of 5250 nM was found for `C[C@@H](OC(=O)Nc1c(-c2ccc(NS(=O)(=O)C3CNC3)cn2)nnn1C)c1cccnc1Cl` [Compound 161, (R)-1-(2-chloropyridin-3-yl)ethyl (4-(5-(azetidine-3-sulfonamido)pyridin-2-yl)-1-methyl-1H-1,2,3-triazol-5-yl)carbamate] in this work.
An EC50 of 705 nM was found for `Cc1nc(-c2nnn(C)c2NC(=O)O[C@H](C)c2cccc(F)c2)ccc1NS(=O)(=O)C1COC1` [Compound 109, (R)-1-(3-fluoro-phenyl)ethyl (1-methyl-4-(6-methyl-5-(oxetane-3-sulfonamido)pyridin-2-yl)-1H-1,2,3-triazol-5-yl)carbamate] in this work.
An EC50 of 170 nM was found for `Cc1nc(-c2nnn(C)c2NC(=O)O[C@H](C)c2cc(F)cc(F)c2)ccc1NS(C)(=O)=O` [Compound 53, (R)-1-(3,5-difluorophenyl)ethyl (1-methyl-4-(6-methyl-5-(methylsulfonamido)pyridin-2-yl)-1H-1,2,3-triazol-5-yl)carbamate] in this work.
